Calls of active or inactive are those of the source. The rule behind the calls is not given here.
Assays:
A549 = experiment: Antiproliferative activity against human A549 cells assessed as inhibition of cell growth by MTT assay; format: functional, cell-based
MDA-MB-231 [1] = experiment: Antiproliferative activity against human MDA-MB-231 cells assessed as inhibition of cell growth by MTT assay; format: functional, cell-based
HeLa = experiment: Antiproliferative activity against human HeLa cells assessed as inhibition of cell growth by MTT assay; format: functional, cell-based
MDA-MB-231 [2] = experiment: Induction of cell cycle arrest in human MDA-MB-231 cells assessed as increase in G2 phase cells at 10 uM incubated for 24 hrs by PI staining based flow cytometric analysis (reference value: 8.95%); format: functional
MDA-MB-231 [3] = experiment: Induction of cell cycle arrest in human MDA-MB-231 cells assessed as increase in S phase cells at 10 uM incubated for 24 hrs by PI staining based flow cytometric analysis (reference value: 16.61%); format: functional
MDA-MB-231 [4] = experiment: Induction of apoptosis in human MDA-MB-231 cells assessed as reduction in cell volume at 1 uM incubated for 24 hrs by transmission electron microscopic analysis; format: functional, cell-based
MDA-MB-231 [5] = experiment: Induction of apoptosis in human MDA-MB-231 cells assessed as increase in p53 level at 100 nM incubated for 48 hrs; format: functional, cell-based
MDA-MB-231 [6] = experiment: Induction of apoptosis in human MDA-MB-231 cells assessed as increase in cytochrome C expression at 1 uM incubated for 24 hrs by Western blot analysis; format: functional, cell-based
MDA-MB-231 [7] = experiment: Induction of apoptosis in human MDA-MB-231 cells assessed as increase in caspase 3 expression at 1 uM incubated for 24 hrs by Western blot analysis; format: functional, cell-based
MDA-MB-231 [8] = experiment: Induction of apoptosis in human MDA-MB-231 cells assessed as increase in caspase 9 expression at 1 uM incubated for 24 hrs by Western blot analysis; format: functional, cell-based
MDA-MB-231 [9] = experiment: Induction of apoptosis in human MDA-MB-231 cells assessed as increase in cytochrome C expression at 0.5 to 3 times of IC50 concentration by Western blot analysis; format: functional, cell-based
MDA-MB-231 [10] = experiment: Induction of apoptosis in human MDA-MB-231 cells assessed as increase in Bax expression at 0.5 to 3 times of IC50 concentration by Western blot analysis; format: functional, cell-based
MDA-MB-231 [11] = experiment: Induction of ROS production in human MDA-MB-231 cells assessed as increase in fluorescence intensity at 1 uM incubated for 24 hrs by DCFH-DA staining based fluorescence analysis; format: functional, cell-based
[12] = Acute toxicity in mouse assessed as animal death at 5000 mg/kg, po; format: organism-based; settings: in vivo
[13] = Acute toxicity in mouse assessed as death rate ratio at 600 mg/kg, ip measured over 14 days; format: organism-based; settings: in vivo, 336 h, time 14 day
[14] = Acute toxicity in mouse assessed as death rate ratio at 476 mg/kg, ip measured over 14 days; format: organism-based; settings: in vivo, 336 h, time 14 day
[15] = Acute toxicity in mouse assessed as death rate ratio at 238 mg/kg, ip measured over 14 days; format: organism-based; settings: in vivo, 336 h, time 14 day
4T1 [16] = experiment: Antitumor activity against mouse 4T1 cells implanted in Balb/c mouse assessed as tumor growth inhibition at 50 mg/kg administered intratumorally every four days for 14 days in the presence of liquid cyanoacrylate relative to control; format: functional; settings: 4T1, 336 h, route it(Intratumoral), time 14 day, read-out: TGI
[17] = Toxicity in Balb/c mouse implanted with mouse 4T1 cells assessed as liver lesions at 50 mg/kg administered intratumorally every four days for 14 days in the presence of liquid cyanoacrylate by H&E staining based histopathological analysis; format: organism-based; settings: in vivo, other, 336 h, route it(Intratumoral), time 14 day
[18] = Toxicity in Balb/c mouse implanted with mouse 4T1 cells assessed as lung lesions at 50 mg/kg administered intratumorally every four days for 14 days in the presence of liquid cyanoacrylate by H&E staining based histopathological analysis; format: organism-based; settings: in vivo, other, 336 h, route it(Intratumoral), time 14 day
[19] = Toxicity in Balb/c mouse implanted with mouse 4T1 cells assessed as kidney lesions at 50 mg/kg administered intratumorally every four days for 14 days in the presence of liquid cyanoacrylate by H&E staining based histopathological analysis; format: organism-based; settings: in vivo, other, 336 h, route it(Intratumoral), time 14 day
4T1 [20] = experiment: Antitumor activity against mouse 4T1 cells implanted in Balb/c mouse assessed as TUNEL positive cells at 50 mg/kg administered intratumorally every four days for 14 days in the presence of liquid cyanoacrylate by TUNEL staining analysis; format: functional; settings: route it(Intratumoral), time 14 day
[21] = Toxicity in Balb/c mouse implanted with mouse 4T1 cells assessed as effect on body weight at 50 mg/kg administered intratumorally every four days for 14 days; format: organism-based; settings: in vivo, other, 336 h, route it(Intratumoral), time 14 day
4T1 [22] = experiment: Antitumor activity against mouse 4T1 cells xenografted in Balb/c mouse assessed as tumor growth inhibition at 50 mg/kg, ip administered every two days for 14 days; format: functional; set-up: scale not given: the % may be the effect or the level left; settings: time 14 day
[23] = Toxicity in Balb/c mouse implanted with mouse 4T1 cells assessed as liver lesions at 50 mg/kg, ip administered every two days for 14 days by H&E staining based histopathological analysis; format: organism-based; settings: in vivo, 336 h, time 14 day
[24] = Toxicity in Balb/c mouse implanted with mouse 4T1 cells assessed as spleen lesions at 50 mg/kg, ip administered every two days for 14 days by H&E staining based histopathological analysis; format: organism-based; settings: in vivo, 336 h, time 14 day
[25] = Toxicity in Balb/c mouse implanted with mouse 4T1 cells assessed as heart lesions at 50 mg/kg administered intratumorally every four days for 14 days by H&E staining based histopathological analysis; format: organism-based; settings: in vivo, other, 336 h, route it(Intratumoral), time 14 day
4T1 [26] = experiment: Antitumor activity aginst mouse 4T1 cells implanted in Balb/c mouse assessed as nuclei disappearance at 50 mg/kg, ip administered every two days for 14 days; format: functional, organism-based; settings: time 14.0 day
4T1 [27] = experiment: Antitumor activity against mouse 4T1 cells implanted in Balb/c mouse assessed as TUNEL positive cells at 50 mg/kg, ip administered every two days for 14 days by TUNEL staining analysis (reference value: 6.55%); format: functional; settings: time 14 day
[28] = Toxicity in Balb/c mouse xenografted with mouse 4T1 cells assessed as lung lesions at 200 mg/kg administered topically over the tumor surface every two days for 14 days in the presence of cyanoacrylate by H&E staining based histopathological analysis; format: organism-based; settings: in vivo, topical_or_ocular, 336 h, route top, time 14 day
4T1 [29] = experiment: Antitumor activity against mouse 4T1 cells xenografted in Balb/c mouse assessed as disordered nuclei at 200 mg/kg administered topically over the tumor surface every two days for 14 days in the presence of cyanoacrylate; format: functional, organism-based; settings: route top, time 14.0 day
4T1 [30] = experiment: Antitumor activity against mouse 4T1 cells xenografted in Balb/c mouse assessed as shrinkage of nucleus at 200 mg/kg administered topically over the tumor surface every two days for 14 days in the presence of cyanoacrylate; format: functional, organism-based; settings: route top, time 14.0 day
[31] = Drug metabolism in Balb/c mouse liver implanted with mouse 4T1 cells assessed as dechlorination of parent compound causing metabolite formation by LC-MS analysis; format: ADME, tissue-based
[32] = Drug metabolism in Balb/c mouse spleen implanted with mouse 4T1 cells assessed as dechlorination of parent compound causing metabolite formation by LC-MS analysis; format: ADME, tissue-based
[33] = Drug metabolism in Balb/c mouse kidney implanted with mouse 4T1 cells assessed as dechlorination of parent compound causing metabolite formation by LC-MS analysis; format: ADME, tissue-based
[34] = Drug metabolism in Balb/c mouse liver implanted with mouse 4T1 cells assessed as 2-methyl hydroxylation of parent compound causing metabolite formation by LC-MS analysis; format: ADME, tissue-based
[35] = Drug metabolism in Balb/c mouse kidney implanted with mouse 4T1 cells assessed as 2-methyl hydroxylation of parent compound causing metabolite formation by LC-MS analysis; format: ADME, tissue-based

Question: For `Cc1[nH]c2ccccc2c1C1=C(Cl)C(=O)C(Cl)=C(N2CCOCC2)C1=O`, which IC50 (A549) is on record?
Answer: 210 nM

Question: What about the IC50 (MDA-MB-231 [1]) of the same molecule?
Answer: 70 nM

Question: And the IC50 (HeLa)?
Answer: 320 nM

Question: And the Activity (MDA-MB-231 [2])?
Answer: 55.05%

Question: And the Activity (MDA-MB-231 [3])?
Answer: 28.47%

Question: What about the Activity (MDA-MB-231 [4]) of the same molecule?
Answer: Active

Question: And the Activity (MDA-MB-231 [5])?
Answer: Active

Question: And the Activity (MDA-MB-231 [6])?
Answer: Active

Question: What about the Activity (MDA-MB-231 [7]) of the same molecule?
Answer: Active

Question: What about the Activity (MDA-MB-231 [8]) of the same molecule?
Answer: Active

Question: What about the Activity (MDA-MB-231 [9]) of the same molecule?
Answer: Active

Question: What about the Activity (MDA-MB-231 [10]) of the same molecule?
Answer: Active

Question: What about the Activity (MDA-MB-231 [11]) of the same molecule?
Answer: Active

Question: And the Activity [12]?
Answer: Non-Toxic

Question: What about the Ratio [13] of the same molecule?
Answer: 1

Question: What about the Ratio [14] of the same molecule?
Answer: 0.66

Question: And the Ratio [15]?
Answer: 0.17

Question: And the inhibition in vivo at 50 mg/kg (4T1 [16])?
Answer: 49.8%

Question: What about the Activity [17] of the same molecule?
Answer: Non-Toxic

Question: What about the Activity [18] of the same molecule?
Answer: Non-Toxic

Question: What about the Activity [19] of the same molecule?
Answer: Non-Toxic

Question: What about the Activity (4T1 [20]) of the same molecule?
Answer: 49.52%

Question: What about the Activity [21] of the same molecule?
Answer: Non-Toxic

Question: And the Activity (4T1 [22])?
Answer: 36%

Question: And the Activity [23]?
Answer: Non-Toxic

Question: And the Activity [24]?
Answer: Non-Toxic

Question: And the Activity [25]?
Answer: Non-Toxic

Question: And the Activity (4T1 [26])?
Answer: Active

Question: And the Activity (4T1 [27])?
Answer: 19.64%

Question: And the Activity [28]?
Answer: Non-Toxic

Question: And the Activity (4T1 [29])?
Answer: Active

Question: What about the Activity (4T1 [30]) of the same molecule?
Answer: Active

Question: And the Drug metabolism [31]?
Answer: Metabolite_Detected

Question: And the Drug metabolism [32]?
Answer: Metabolite_Detected

Question: What about the Drug metabolism [33] of the same molecule?
Answer: Metabolite_Detected

Question: What about the Drug metabolism [34] of the same molecule?
Answer: Metabolite_Detected

Question: What about the Drug metabolism [35] of the same molecule?
Answer: Metabolite_Detected

Reference: ChEMBL document CHEMBL5137015, “Design, synthesis, and evaluation of a novel series of mono-indolylbenzoquinones derivatives for the potential treatment of breast cancer” (Eur J Med Chem, 2022)
